These results are taken from ChEMBL document CHEMBL1800029, “N-aryl-benzimidazolones as novel small molecule HSP90 inhibitors” (Bioorg Med Chem Lett, 2010).

The target of experiment [1] is T1, Heat shock protein HSP 90-alpha (Homo sapiens, UniProt P07900).
Description: Inhibition of Hsp90alpha ATPase activity by malachite green ATP-ase assay
The target in experiment [2] is T1, Heat shock protein HSP 90-alpha. The source holds these as a separate data set.
Description: Binding affinity to Hsp90alpha N-terminal ATPase domain by TR-FRET assay based competitive binding assay
For experiment [3] the target is unchanged. Kind of experiment: Inhibition of Hsp90alpha in human SKBR3 cells assessed as ErbB2 degradation by Western blot analysis. The format is cell-based, SK-BR-3.
The target is the same in experiment [4]. The experiment is described as follows: Inhibition of Hsp90alpha in human SKBR3 cells assessed as up-regulation of HSP70 protein by Western blot analysis. The format is cell-based, SK-BR-3. A general note: In western blotting, separated proteins are transferred to a membrane and probed.
For experiment [5] the target is unchanged. The experiment is described as follows: Inhibition of Hsp90alpha in human H1299 cells assessed as HIF-1alpha degradation by luciferase reporter assay. In kind it is cell-based.
The subject of a further experiment is SK-BR-3. Kind of experiment: Cytotoxicity against human SKBR3 cells. The format is functional, cell-based.

As for `CC(=O)NCc1ccc2c(c1)[nH]c(=O)n2-c1cc(Cl)c(O)cc1O`, the values for the half-inhibitory concentration (IC50) in experiment [1] and in experiment [2] were 24800 nM and 40 nM, respectively.

Take `O=C(NCc1ccc2c(c1)[nH]c(=O)n2-c1cc(Cl)c(O)cc1O)c1ccccc1`: the results for the IC50 in experiment [1] and in experiment [2] were 22900 nM and 72 nM, respectively.

As for `CS(=O)(=O)NCc1ccc2c(c1)[nH]c(=O)n2-c1cc(Cl)c(O)cc1O`, the results for the 50% inhibitory concentration (IC50) in experiment [1] and in experiment [2] were 25200 nM and 50 nM, respectively.

On to `CCNC(=O)NCc1ccc2c(c1)[nH]c(=O)n2-c1cc(Cl)c(O)cc1O`, for which the IC50 in experiment [1] was determined as 14200 nM; in experiment [2], 33 nM.

As to `O=C(NCc1ccc2c(c1)[nH]c(=O)n2-c1cc(Cl)c(O)cc1O)Nc1ccccc1`, the concentration for half-maximal inhibition (IC50) in experiment [1] is 15400 nM; in experiment [2], 60 nM.

Regarding `O=c1[nH]c2cc(CNS(=O)(=O)c3ccccc3)ccc2n1-c1cc(Cl)c(O)cc1O`, the concentration for half-maximal inhibition (IC50) amounted to 3420 nM in experiment [1] and 27 nM in experiment [2].

Take `O=c1[nH]c2cc(CNS(=O)(=O)c3cccc4ccccc34)ccc2n1-c1cc(Cl)c(O)cc1O`: the concentration giving a half-maximal response (EC50) in experiment [3] was less than 100 nM; in experiment [4] it was 60 nM; in experiment [5] it was 190 nM; in the experiment with SK-BR-3 it was 12 nM. This compound also had an IC50 in experiment [1] of 550 nM.

Consider `O=c1[nH]c2cc(CNS(=O)(=O)c3ccc4ccccc4c3)ccc2n1-c1cc(Cl)c(O)cc1O`, for which the figures for the 50% inhibitory concentration (IC50) in experiment [1] and in experiment [2] were 1140 nM and 47 nM, respectively.

As for `O=c1[nH]c2ccccc2n1-c1cc(C(F)(F)F)ccc1O`, the IC50 in experiment [1] turned out to be 127000 nM; in experiment [2], 2320 nM.

In turn, `O=c1[nH]c2ccccc2n1-c1ccc(O)cc1O` registered a concentration for half-maximal inhibition (IC50) in experiment [1] of 85000 nM.

`O=c1[nH]c2ccccc2n1-c1cc(O)ccc1O`: the concentration for half-maximal inhibition (IC50) amounted to 200000 nM in experiment [1] and 34900 nM in experiment [2].

On to `O=c1[nH]c2ccccc2n1-c1cc(Cl)c(O)cc1O`, for which the 50% inhibitory concentration (IC50) is 15200 nM in experiment [1] and 54 nM in experiment [2].

Turning to `O=c1[nH]c2ccccc2n1-c1cc(O)c(Cl)cc1O`, the IC50 was 200000 nM in experiment [1] and 2530 nM in experiment [2].

In turn, `CCNC(=O)c1n[nH]c(-c2cc(Cl)c(O)cc2O)c1-c1ccc(OC)cc1` displayed an EC50 in the experiment on SK-BR-3 of 250 nM.

As to `O=c1[nH]c2cc(C(F)(F)F)ccc2n1-c1cc(C(F)(F)F)ccc1O`, the IC50 in experiment [1] was 81000 nM; in experiment [2], 3320 nM.

Take `C=CCNC1=C2C[C@@H](C)C[C@H](OC)[C@H](O)[C@@H](C)/C=C(\C)[C@H](OC(N)=O)[C@@H](OC)/C=C\C=C(/C)C(=O)NC(=CC1=O)C2=O` [TANESPIMYCIN]: a half-maximal effect in the experiment with SK-BR-3 (EC50) was put at 25 nM.

The term IC50 denotes the concentration that inhibits the measured activity by half. High values mean lower potency, low ones higher potency. One may read the EC50 as the midpoint of the concentration-response curve.
